Measured values reported in patent US20190185509A1, “2'2' CYCLIC DINUCLEOTIDES WITH PHOSPHONATE BOND ACTIVATING THE STING ADAPTOR PROTEIN” (INSTITUTE OF ORGANIC CHEMISTRY AND BIOCHEMISTRY ASCR, V.V.I., priority 2017, published 2019).

Legend:
[1] = biological target: T1, AQ STING (G230A-R293Q) (Homo sapiens, UniProt Q86WV6, G230A/H232R/R293Q); assay: Differential Scanning Fluorimetry (DSF) with AQ STING; assay type: binding; details: thermal shift vs apoprotein; truncated human AQ STING 0.1 mg/ml; 150 μM CDN
T1 construct: truncated human WT STING or AQ STING (amino acid residues 140-343) with N-terminal 8×His and SUMO tag; 8xHis-SUMO (N, cleaved yes); made in house; host or cells: E. coli Rosetta-gami B (DE3)
T1 sequence (Q86WV6 140-343 G230A/H232R/R293Q): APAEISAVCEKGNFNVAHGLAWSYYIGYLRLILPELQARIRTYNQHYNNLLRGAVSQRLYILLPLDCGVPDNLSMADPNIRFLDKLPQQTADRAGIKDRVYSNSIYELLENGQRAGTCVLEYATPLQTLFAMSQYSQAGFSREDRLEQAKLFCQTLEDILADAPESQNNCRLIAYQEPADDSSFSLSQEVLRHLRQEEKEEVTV
Description: (§1) WT STING and AO STING Proteins
(§2) Purified PCR products were cleaved with restriction enzymes BamHI (cat. #R0136S, NEB, Ipswich, USA) and NotI (cat. #R0189S, NEB, Ipswich, USA) and cloned into the pSUMO vector linearized with the identical enzymes.
(§3) DNase I (cat. #D5025, Sigma Aldrich, Czech Republic) and RNase A (cat. #R6513, Sigma Aldrich, Czech Republic) were added (final concentration 50 μg/ml) together with MgCl2 (final concentration 5 mmol·l^−1) to the homogenate and bacteria were lysed using French Press G-M™ High-Pressure Cell Press Homogenizer (1500 psi, 3 cycles). […] The resin was poured into a chromatography column, washed with 50 ml buffer A (50 mmol·l^−1 TrisCl (pH 8.0), 800 mmol·l^−1 NaCl, 3 mmol·l^−1 β-mercaptol; 10% glycerol; 20 mmol·l^−1 imidazole) and 8-His-SUMO tagged STING proteins were eluted with 15 ml buffer A containing 300 mmol·l^−1 imidazole. […] Proteins were concentrated with Amicon® Ultra-15 10 K device (cat. #UFC901008, Merck Millipore, Billerica, USA) and flash frozen in liquid N2.
(§4) Differential Scanning Fluorimetry with WT STING and AQ STING
(§5) 20 μL solutions of the reaction mixtures were pipetted in triplicates into 96 well optical reaction plates and thermal denaturation of samples were performed on real time PCR cycler (LightCycler R 480 Instrument II-Roche, Basel, Switzerland). The first derivative of the thermal denaturation curves was performed to calculate denaturing temperatures of STING-CDN complexes and STING apoproteins. The thermal shift for each CDN was calculated by subtracting the average denaturing temperature of STING apoprotein from the average denaturing temperature of STING CDN complex.

[2] = biological target: T2, WT STING (Homo sapiens, UniProt Q86WV6, H232R); assay: Digitonin assay using 293T wtSTING-FL reporter cells; assay type: cell-based; details: 293T wtSTING-FL cells, ISRE firefly luciferase reporter; 30 min in Digitonin buffer, then 5 hours; 8-point dose-response
Source text: ISRE Reporter Plasmid (pGL64.27-4×ISRE)
Two complementary oligonucleotides of the sequence […] […] […] […] […] […] […] The oligonucleotides were mixed in equal molar amounts, hybridized, and cleaved by restriction endonucleases HindIII (cat. #. R0104S, NEB, Ipswich, USA) and BglII (cat. #R0144S, NEB, Ipswich, USA). Ultimately, they were ligated into plasmid pGL4.27 (cat. #E6651, Promega, Madison, USA) linearized with the same enzymes. As result the sequence with four ISRE sites was placed upstream of the minimum promoter of firefly luciferase reporter gene.
After 5 minutes incubation at room temperature (RT), 250 μL of the mixture was added dropwise to the cells in one well. Cells were incubated 36 hours at 37° C. with 5% CO2, and then detached with 0.05% Trypsin and 0.22 g/L EDTA (both cat. #L0941, Biowest, Riverside, USA).
Transfected cells were seeded onto poly-D-lysine coated six well plates at density 50,000 cells per 1 cm^2 in DMEM medium with high glucose containing 10% heat inactivated FBS, 30 μg/mL blasticidin (cat. #ant-bl-05, InvivoGen, San Diego, USA), 0.06 mg/ml Penicillin G and 0.1 mg/ml Streptomycin Sulfate (both cat. #. L0018, Biowest, Riverside, USA). The medium was replenished every 3-4 days until visible colonies of cells resistant to blasticidin were formed.
Blasticidin resistant cells stably expressing WT STING were further transfected with pGL64.27-4×ISRE plasmid following the same procedure as described above. […] Homogeneous culture of stably double transfected cells was prepared by limiting dilution of cells in 96 well plates and wells with cells were selected that originated from a single cell.
The medium was removed next day and three fold serial dilutions of compounds in Digitonin buffer containing 50 mmol·l^−1 HEPES (cat. #H3375, Sigma Aldrich, Czech Republic) pH 7.0, 100 mmol·l^−1 KCl, 3 mmol·l^−1 MgCl2, 0.1 mmol·l^−1 DTT (cat. #D0632, Sigma Aldrich, Czech Republic), 85 mmol·l^−1 Sucrose (cat. #S7903, Sigma Aldrich, Czech Republic), 0.2% BSA (cat. #A2153, Sigma Aldrich, Czech Republic), 1 mmol·l^−1 ATP (cat. #A1852, Sigma Aldrich, Czech Republic), 0.1 mmol·l^−1 GTP (cat. #G8877, Sigma Aldrich, Czech Republic), and 10 μg/mL Digitonin A (cat. #D141, Sigma Aldrich, Czech Republic) were added to the cells. The buffer was removed after 30 minutes incubation at 37° C. with 5% CO2, the cells were washed once with 100 μl of cultivation medium, and 100 μl of medium was added to each well. The plates with cells were incubated for 5 hours at 37° C. with 5% CO2, 50 μl of the medium was removed and 30 μl of ONE-Glo™ Luciferase Assay System reagent (cat. #E6120, Promega, Madison, USA) was added to each well. Luminescence was read on Synergy H1 (Biotek, Winooski, USA).
Target sequence in this assay (Q86WV6 whole entry H232R): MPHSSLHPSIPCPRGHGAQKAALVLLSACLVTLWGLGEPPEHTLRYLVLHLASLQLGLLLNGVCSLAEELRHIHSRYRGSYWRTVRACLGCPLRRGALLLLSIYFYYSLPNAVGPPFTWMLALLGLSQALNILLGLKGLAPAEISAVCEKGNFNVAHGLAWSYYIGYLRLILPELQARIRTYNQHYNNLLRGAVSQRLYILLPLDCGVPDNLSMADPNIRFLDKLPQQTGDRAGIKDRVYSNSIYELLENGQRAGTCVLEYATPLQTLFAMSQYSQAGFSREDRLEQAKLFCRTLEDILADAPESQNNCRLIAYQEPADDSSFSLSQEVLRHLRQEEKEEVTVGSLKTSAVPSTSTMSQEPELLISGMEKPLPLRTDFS

[3] = biological target: T2, WT STING; assay: Differential Scanning Fluorimetry (DSF) with WT STING; assay type: binding; set-up: truncated human WT STING or AQ STING (amino acid residues 140-343) with N-terminal 8×His and SUMO tag; 8xHis-SUMO (N, cleaved yes); made in house; host or cells: E. coli Rosetta-gami B (DE3); details: thermal shift vs apoprotein; truncated human WT STING 0.1 mg/ml; 150 μM CDN
Description: as §1, §2, §3, §4, §5
Target sequence in this assay (Q86WV6 140-343 H232R): as the sequence (Q86WV6 140-343 G230A/H232R/R293Q) above, with A91G, Q154R counted along it

| Structure (SMILES) | DSF ΔTm AQ STING [1] | EC50 [2] | DSF ΔTm WT STING [3] |
| --- | --- | --- | --- |
| C[C@]12OCP(=O)(O)O[C@H]3[C@H](n4cnc5c(N)ncnc54)O[C@](C)(OCP(=O)(O)O[C@@H]([C@H](n4cnc5c(N)ncnc54)O1)[C@@H]2O)[C@H]3O [Compound 13, (1R,6R,8R,9R,14R,16R,17S,18S)-8,16-bis(6-amino-9H-purin-9-yl)-3,11,17,18-tetrahydroxy-6,14-dimethyl-2,5,7,10,13,15-hexaoxa-3,11-diphosphatricyclo[12.2.1.1^6,9]octadecane 3,11-dioxide] | – | – | 0.6 °C |
| Nc1ncnc2c1ncn2[C@@H]1O[C@@H]2COP(=O)(O)O[C@@H]3[C@H](O)[C@@H](COCP(=O)(O)O[C@@H]1[C@@H]2O)O[C@H]3n1cnc2c(N)ncnc21 [Compound 12, (1R,6R,8R,9R,15R,17R,18R,19R)-8,17-bis(6-amino-9H-purin-9-yl)-3,11,18,19-tetrahydroxy-2,4,7,10,13,16-hexaoxa-3,11-diphosphatricyclo[13.2.1.1^6,9]nonadecane 3,11-dioxide] | 6.3 °C | 6 µM | 2.0 °C |
| Nc1ncnc2c1ncn2[C@@H]1O[C@@H]2COP(=O)(O)O[C@H]3[C@H](O)[C@@H](COCP(=O)(O)O[C@@H]1[C@@H]2O)O[C@H]3n1cnc2c(N)ncnc21 [Compound 15, (1S,6R,8R,9R,15R,17R,18R,19R)-8,17-bis(6-amino-9H-purin-9-yl)-3,11,18,19-tetrahydroxy-2,4,7,10,13,16-hexaoxa-3,11-diphosphatricyclo[13.2.1.16,9]nonadecane 3,11-dioxide] | 5.5 °C | 16.4 µM | 1.7 °C |

The remaining compounds from weak to strong by EC50 [2], led by results:

| DSF ΔTm AQ STING [1] | EC50 [2] | DSF ΔTm WT STING [3] | Structure (SMILES) |
| --- | --- | --- | --- |
| 7.9 °C | 4.2 µM | 2.5 °C | Nc1ncnc2c1ncn2[C@@H]1O[C@@H]2OCP(=O)(O)O[C@@H]3[C@H](O)[C@@H](OCP(=O)(O)O[C@@H]1[C@@H]2O)O[C@H]3n1cnc2c(N)ncnc21 [Compound 11, (1R,6R,8R,9R,14R,16R,17S,18S)-8,16-bis(6-amino-9H-purin-9-yl)-3,11,17,18-tetrahydroxy-2,5,7,10,13,15-hexaoxa-3,11-diphosphatricyclo[12.2.1.1^6,9]octadecane 3,11-dioxide] |
| 20.8 °C | 2.35 µM | 0.7 °C | Nc1ncnc2c1ncn2[C@@H]1O[C@@H]2OCP(=O)(O)O[C@@H]3[C@H](O)[C@@H](COP(=O)(O)O[C@@H]1[C@@H]2O)O[C@H]3n1cnc2c(N)ncnc21 [Compound 14, (1R,6R,8R,9R,14R,16R,17S,18R)-8,16-bis(6-amino-9H-purin-9-yl)-3,11,17,18-tetrahydroxy-2,4,7,10,13,15-hexaoxa-3,11-diphosphatricyclo[12.2.1.1^6,9]octadecane 3,11-dioxide] |
